The target in experiment [1] is T1, rat APJ receptor (Rattus norvegicus, UniProt Q9JHG3).
T1 construct: expressed in transfected cells
T1 sequence (Q9JHG3 1-377): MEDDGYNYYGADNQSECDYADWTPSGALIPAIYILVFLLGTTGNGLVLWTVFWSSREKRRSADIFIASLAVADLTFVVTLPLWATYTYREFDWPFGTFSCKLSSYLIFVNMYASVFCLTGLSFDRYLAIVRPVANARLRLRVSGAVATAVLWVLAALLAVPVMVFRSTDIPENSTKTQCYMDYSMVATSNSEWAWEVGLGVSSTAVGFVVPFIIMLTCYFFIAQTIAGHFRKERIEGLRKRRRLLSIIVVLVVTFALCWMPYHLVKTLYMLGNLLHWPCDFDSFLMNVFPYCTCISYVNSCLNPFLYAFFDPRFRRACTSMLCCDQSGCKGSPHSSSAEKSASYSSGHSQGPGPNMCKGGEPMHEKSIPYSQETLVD
Briefly: [35S] GTPγS assay, rat APJ receptor. Format: biochemical. The method, then:
The membranes were incubated with modified peptides in the assay buffer. […] Bound [^35S] GTPγS was separated from free radiolabel by filtration. The filter bound radioactivity was determined by liquid scintillation counting.
A general note: GTPγS resists hydrolysis and so accumulates on activated G proteins.

The target in experiment [2] is T2, human APJ receptor (Homo sapiens, UniProt P35414).
T2 construct: expressed in transfected cells
T2 sequence (P35414 1-380): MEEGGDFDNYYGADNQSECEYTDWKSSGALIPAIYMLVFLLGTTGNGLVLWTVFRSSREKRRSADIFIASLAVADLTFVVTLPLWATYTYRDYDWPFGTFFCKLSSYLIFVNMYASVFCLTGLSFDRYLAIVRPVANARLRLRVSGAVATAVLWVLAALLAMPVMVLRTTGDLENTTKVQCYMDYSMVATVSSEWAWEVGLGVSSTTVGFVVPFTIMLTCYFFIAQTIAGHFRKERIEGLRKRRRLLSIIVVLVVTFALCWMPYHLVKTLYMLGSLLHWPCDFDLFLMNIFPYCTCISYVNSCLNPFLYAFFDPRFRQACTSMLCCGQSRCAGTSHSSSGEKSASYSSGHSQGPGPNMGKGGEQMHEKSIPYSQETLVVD
Briefly: [35S] GTPγS assay, human APJ receptor. The experiment is classed as biochemical.

The mark [3] stands for this setting: rat APJ receptor, read-out: EC50 Rat APJ Receptor.
Where [4] appears, read: Table 16, read-out: EC50 Rat APJ Receptor.

Each structure is given as a SMILES string. Read-outs that look alike come from different tables or passages of the source. Starred links: 1 amine or outer side, 2 acyl side, 3 side chain; linkers in the order of their positions; H or OH if unused. Non-standard residues stand in square brackets, D forms with d. Residues, ends and D or L forms follow the SMILES beside them. *: point of attachment. dBip = N[C@H](Cc1ccc(-c2ccccc2)cc1)C(=O)O; Oic = O=C(O)[C@@H]1C[C@@H]2CCCC[C@@H]2N1; Phe(4-Cl) = N[C@@H](Cc1ccc(Cl)cc1)C(=O)O; Phe(4-I) = N[C@@H](Cc1ccc(I)cc1)C(=O)O; γGlu = O=C(O)[C@H](CCC(=O)[*:2])N[*:1]; d(β3hF) = N[C@@H](CC(=O)O)Cc1ccccc1; Igl = N[C@H](C(=O)O)C1Cc2ccccc2C1; NMeR = CN[C@@H](CCCNC(=N)N)C(=O)O; Palmitoyl = CCCCCCCCCCCCCCCC(=O)*; Tridecanoyl = CCCCCCCCCCCCC(=O)*; hArg = N=C(N)NCCCC[C@H](N)C(=O)O; Tic = O=C(O)[C@@H]1Cc2ccccc2CN1; Cha = N[C@@H](CC1CCCCC1)C(=O)O; NMeL = CN[C@@H](CC(C)C)C(=O)O; αMeL = CC(C)C[C@](C)(N)C(=O)O; β3hL = CC(C)C[C@H](N)CC(=O)O; αMeP = C[C@@]1(C(=O)O)CCCN1; β3hP = O=C(O)C[C@@H]1CCCN1; Pip = O=C(O)[C@@H]1CCCCN1; Nle = CCCC[C@H](N)C(=O)O; Orn = NCCC[C@H](N)C(=O)O; Dap = NC[C@H](N)C(=O)O; AEEA = NCCOCCOCC(=O)O; Aib = CC(C)(N)C(=O)O; NPrGly = CCCNCC(=O)O

Turning to `CCCCCCCCCCCCC(=O)N[C@@H](CCC(=O)NCCOCCOCC(=O)NCCOCCOCC(=O)N[C@@H](CCCCNC(=N)N)C(=O)N[C@H](CCCNC(=N)N)C(=O)N[C@@H](CCC(N)=O)C(=O)N[C@@H](CCCCNC(=N)N)C(=O)N1CCC[C@H]1C(=O)N[C@@H](CCCC)C(=O)N(C)[C@@H](CC(C)C)C(=O)N[C@@H](C)C(=O)N[C@@H](C)C(=O)N[C@@H](CCCCN)C(=O)NCC(=O)N1[C@H](C(=O)N[C@@H](Cc2ccc(I)cc2)C(=O)N2CCC[C@H]2C(=O)N[C@H](Cc2ccc(-c3ccccc3)cc2)C(=O)O)C[C@@H]2CCCC[C@@H]21)C(=O)O` [compound 329] ({Tridecanoyl-γGlu-AEEA-AEEA}-[hArg][dR]Q[hArg]P[Nle][NMeL]AAKG[Oic][Phe(4-I)]P[dBip]-OH), the EC50 in experiment [1] (setting [3]) was 36.2 nM; in experiment [2] (human APJ receptor), 37.6 nM.

Regarding `CCCCCCCCCCCCC(=O)N[C@@H](CCC(=O)NCCOCCOCC(=O)NCCOCCOCC(=O)N[C@H](CC(=O)N[C@@H](CCCNC(=N)N)C(=O)N1CCC[C@H]1C(=O)N(C)[C@@H](CCCNC(=N)N)C(=O)N[C@@H](CC(C)C)C(=O)N[C@@H](CO)C(=O)N[C@@H](Cc1c[nH]cn1)C(=O)N[C@@H](CCCCN)C(=O)NCC(=O)N1CCC[C@H]1C(=O)N[C@@H](CCCC)C(=O)N1CCC[C@H]1C(=O)N[C@@H](Cc1ccc(Cl)cc1)C(=O)O)CC(C)C)C(=O)O` [compound 421] ({Tridecanoyl-γGlu-AEEA-AEEA}-[β3hL]RP[NMeR]LSHKGP[Nle]P[Phe(4-Cl)]-OH), the EC50 in experiment [1] (setting [3]) is 0.286 nM; in experiment [2] (human APJ receptor), 0.0934 nM.

Consider `CCCCCCCCCCCCC(=O)N[C@@H](CCC(=O)NCCOCCOCC(=O)NCCOCCOCC(=O)N[C@@H](CCC(N)=O)C(=O)N[C@@H](CCCNC(=N)N)C(=O)N1CCC[C@H]1C(=O)N1CCC[C@H]1C(=O)N[C@@H](CC(C)C)C(=O)N[C@@H](CO)C(=O)N[C@@H](Cc1c[nH]cn1)C(=O)N[C@@H](CCCCN)C(=O)NCC(=O)N1CCC[C@H]1C(=O)N[C@@H](CCCC)C(=O)N1CCC[C@H]1C(=O)N[C@@H](Cc1ccc(Cl)cc1)C(=O)O)C(=O)O` [compound 427] ({Tridecanoyl-γGlu-AEEA-AEEA}-QRPPLSHKGP[Nle]P[Phe(4-Cl)]-OH), for which the EC50 in experiment [1] (setting [4]) was 0.313 nM; in experiment [2] (Table 16) it was 0.171 nM.

With `CCCCCCCCCCCCC(=O)N[C@@H](CCC(=O)NCCOCCOCC(=O)NCCOCCOCC(=O)N[C@H](CCCNC(=N)N)C(=O)N[C@H](CCC(N)=O)C(=O)N[C@@H](CCCCNC(=N)N)C(=O)N1CCC[C@H]1C(=O)N[C@@H](CCCCNC(=N)N)C(=O)N[C@@H](CC1CCCCC1)C(=O)N[C@@H](CO)C(=O)N[C@@H](Cc1c[nH]cn1)C(=O)N[C@@H](CCCCN)C(=O)NCC(=O)N1[C@H](C(=O)N[C@@H](CCCC)C(=O)N2CCC[C@H]2C(=O)N[C@@H](Cc2ccc(Cl)cc2)C(=O)O)C[C@@H]2CCCC[C@@H]21)C(=O)O` [compound 481] ({Tridecanoyl-γGlu-AEEA-AEEA}-[dR][dQ][hArg]P[hArg][Cha]SHKG[Oic][Nle]P[Phe(4-Cl)]-OH), the values for the EC50 in experiment [1] (setting [4]) and in experiment [2] (Table 16) were 0.341 nM and 0.177 nM, respectively.

Take `CCCCCCCCCCCCC(=O)N[C@@H](CCC(=O)NCCOCCOCC(=O)NCCOCCOCC(=O)N[C@H](CCC(N)=O)C(=O)N[C@@H](CCCNC(=N)N)C(=O)N1CCC[C@H]1C(=O)N(C)[C@@H](CCCNC(=N)N)C(=O)N[C@@H](CC1CCCCC1)C(=O)N[C@@H](CO)C(=O)N[C@@H](Cc1c[nH]cn1)C(=O)N[C@@H](CCCCN)C(=O)NCC(=O)N1CCC[C@@]1(C)C(=O)N[C@@H](CCCC)C(=O)N[C@@H](Cc1ccc(Cl)cc1)C(=O)O)C(=O)O` [compound 551] ({Tridecanoyl-γGlu-AEEA-AEEA}-[dQ]RP[NMeR][Cha]SHKG[αMeP][Nle][Phe(4-Cl)]-OH): the values for the EC50 in experiment [1] (setting [4]) and in experiment [2] (Table 16) were 1.15 nM and 0.235 nM, respectively.

`CCCCCCCCCCCCCCCC(=O)N[C@@H](CCC(=O)NCCOCCOCC(=O)NCCOCCOCC(=O)N[C@H](CCC(N)=O)C(=O)N[C@@H](CCCNC(=N)N)C(=O)N1CCC[C@H]1C(=O)N(C)[C@@H](CCCNC(=N)N)C(=O)N[C@@H](CC1CCCCC1)C(=O)N[C@@H](CO)C(=O)N[C@@H](Cc1c[nH]cn1)C(=O)N[C@@H](CCCCN)C(=O)NCC(=O)N1CCCC[C@H]1C(=O)N[C@@H](CCCC)C(=O)N1CCC[C@H]1C(=O)N1Cc2ccccc2C[C@H]1C(=O)O)C(=O)O` [compound 598] ({Palmitoyl-γGlu-AEEA-AEEA}-[dQ]RP[NMeR][Cha]SHKG[Pip][Nle]P[Tic]-OH): the EC50 in experiment [1] (setting [3]) was 2.85 nM; in experiment [2] (human APJ receptor) it was 0.463 nM.

Take `CCCCCCCCCCCCCCCC(=O)N[C@@H](CCC(=O)NCCOCCOCC(=O)NCCOCCOCC(=O)N[C@H](CCC(N)=O)C(=O)N[C@@H](CCCNC(=N)N)C(=O)N1CCC[C@H]1C(=O)N(C)[C@@H](CCCNC(=N)N)C(=O)N[C@@H](CC1CCCCC1)C(=O)N[C@@H](CO)C(=O)N[C@@H](CN)C(=O)N[C@@H](CCCCN)C(=O)NCC(=O)N1[C@H](C(=O)N[C@@H](CCCC)C(=O)N2CCC[C@H]2CC(=O)N[C@@H](CC(=O)O)Cc2ccccc2)C[C@@H]2CCCC[C@@H]21)C(=O)O` [compound 616] ({Palmitoyl-γGlu-AEEA-AEEA}-[dQ]RP[NMeR][Cha]S[Dap]KG[Oic][Nle][β3hP][d(β3hF)]-OH): the EC50 in experiment [1] (setting [3]) turned out to be 17.2 nM; in experiment [2] (human APJ receptor), 2.75 nM.

For the compound `CCCCCCCCCCCCCCCC(=O)N[C@@H](CCC(=O)NCCOCCOCC(=O)NCCOCCOCC(=O)N[C@H](CCC(N)=O)C(=O)N[C@@H](CCCNC(=N)N)C(=O)N1CCC[C@H]1C(=O)N(C)[C@@H](CCCNC(=N)N)C(=O)N[C@@H](CC1CCCCC1)C(=O)N[C@@H](CO)C(=O)N[C@@H](Cc1c[nH]cn1)C(=O)N[C@@H](CCCN)C(=O)NCC(=O)N1[C@H](C(=O)N[C@@H](CCCC)C(=O)N2CCC[C@H]2CC(=O)N[C@@H](CC(=O)O)Cc2ccccc2)C[C@@H]2CCCC[C@@H]21)C(=O)O` [compound 618] ({Palmitoyl-γGlu-AEEA-AEEA}-[dQ]RP[NMeR][Cha]SH[Orn]G[Oic][Nle][β3hP][d(β3hF)]-OH), the figures for the EC50 in experiment [1] (setting [3]) and in experiment [2] (human APJ receptor) were 11.1 nM and 2.47 nM, respectively.

On to `CCCCCCCCCCCCCCCC(=O)N[C@@H](CCC(=O)NCCOCCOCC(=O)NCCOCCOCC(=O)N[C@H](CCC(N)=O)C(=O)N[C@@H](CCCNC(=N)N)C(=O)N1CCC[C@H]1C(=O)N(C)[C@@H](CCCNC(=N)N)C(=O)N[C@@H](CC1CCCCC1)C(=O)N[C@@H](CO)C(=O)N[C@@H](Cc1c[nH]cn1)C(=O)N[C@H](C(=O)NCC(=O)N1[C@H](C(=O)N[C@@H](CCCC)C(=O)N2CCC[C@H]2CC(=O)N[C@@H](CC(=O)O)Cc2ccccc2)C[C@@H]2CCCC[C@@H]21)C1Cc2ccccc2C1)C(=O)O` [compound 625] ({Palmitoyl-γGlu-AEEA-AEEA}-[dQ]RP[NMeR][Cha]SH[Igl]G[Oic][Nle][β3hP][d(β3hF)]-OH), for which the EC50 turned out to be 20.1 nM in experiment [1] (setting [3]) and 11.1 nM in experiment [2] (human APJ receptor).

For `CCCCCCCCCCCCCCCC(=O)N[C@@H](CCC(=O)NCCOCCOCC(=O)NCCOCCOCC(=O)N[C@H](CCC(N)=O)C(=O)N[C@@H](CCCNC(=N)N)C(=O)N1CCC[C@H]1C(=O)N(C)[C@@H](CCCNC(=N)N)C(=O)N[C@@](C)(CC(C)C)C(=O)N[C@@H](CO)C(=O)N[C@@H](CN)C(=O)N[C@@H](CCCCN)C(=O)NCC(=O)N1[C@H](C(=O)N[C@@H](CCCC)C(=O)N2CCC[C@H]2CC(=O)N[C@@H](Cc2ccc(Cl)cc2)C(=O)O)C[C@@H]2CCCC[C@@H]21)C(=O)O` [compound 630] ({Palmitoyl-γGlu-AEEA-AEEA}-[dQ]RP[NMeR][αMeL]S[Dap]KG[Oic][Nle][β3hP][Phe(4-Cl)]-OH), the EC50 in experiment [1] (setting [3]) amounted to 0.486 nM; in experiment [2] (human APJ receptor), 0.203 nM.

For `CCCCCCCCCCCCCCCC(=O)N[C@@H](CCC(=O)NCCOCCOCC(=O)NCCOCCOCC(=O)N[C@H](CCC(N)=O)C(=O)N[C@@H](CCCNC(=N)N)C(=O)N1CCC[C@H]1C(=O)N(C)[C@@H](CCCNC(=N)N)C(=O)N[C@@H](CC1CCCCC1)C(=O)N(CCC)CC(=O)N[C@@H](Cc1c[nH]cn1)C(=O)N[C@@H](CCCCN)C(=O)NCC(=O)N1CCCC[C@H]1C(=O)N[C@@H](CCCC)C(=O)NC(C)(C)C(=O)N[C@@H](Cc1ccc(Cl)cc1)C(=O)O)C(=O)O` [compound 643] ({Palmitoyl-γGlu-AEEA-AEEA}-[dQ]RP[NMeR][Cha][NPrGly]HKG[Pip][Nle][Aib][Phe(4-Cl)]-OH), the EC50 in experiment [1] (setting [3]) stood at 3.79 nM; in experiment [2] (human APJ receptor), 0.463 nM.

As usually defined, the EC50 is the concentration giving half of the maximal effect.
